Test results published in US9688957B2, “Hydrogel compositions for use in promoting tubulogenesis” (Wisconsin Alumni Research Foundation, priority 2014, dated 2017).

Experiments:
Format in all cases: cell-based, human
HUVECs [1] = assay: HUVEC proliferation with VEGFR2 inhibition on tissue culture polystyrene (EdU); conditions: 10 μM SU5416, HUVECs on TCPS, 24 hours
Description: HUVECs were plated in tissue culture polystyrene (TCPS) 24-well plates at a density of 5.0×10^4 cells/cm^2. The cells were grown in growth medium alone or with 10 μM SU5416 for 24 hours. Afterward, the medium was changed to fresh growth medium with or without 10 μM SU5416 and 20 μM EdU. After 5 hours of incubation, the cells were fixed in 10% buffered formalin for 30 minutes and stained using the Click-iT EdU 488 proliferation kit (Invitrogen). The staining procedure was slightly modified from the manufacturer's instructions, as Alexa Fluor® 488 was diluted to half the recommended concentration. The cells were photographed using a Nikon TE300 fluorescence microscope and proliferation was quantified via by counting nuclei staining positive for EdU and normalizing the number to total nuclei.

HUVECs [2] = assay: HUVEC tubulogenesis in growth factor-reduced MATRIGEL spots; conditions: 10 μM SU5416, HUVECs in growth factor-reduced MATRIGEL, 48 hours
Description: HUVECs were suspended in growth factor-reduced MATRIGEL® (BD Biosciences, San Jose, Calif.) at a density of 2×10^7 cells/mL. A 200 μm thick PDMS sheet of microwells was placed on top of a glass slide and the MATRIGEL®-cell suspension was pipetted as 0.4 μl droplets into the microwells. These arrays of MATRIGEL® “spots” were incubated at 37° C. for 30 minutes and covered in growth medium alone or with 10 μM SU5416. After 48 hours of culture, the arrays were stained with Cell Tracker Green in the same manner as in the PEG hydrogel viability assay, but without Hoechst nuclear stain or ethidium homodimer. The arrays were washed with 1×PBS and fixed for 30 minutes in 10% buffered formalin. A green fluorescence and phase contrast z-stack image of each spot was taken at 48 hours after encapsulation using a Nikon TI Eclipse microscope. Total CLS length in each individual spot was quantified manually.

HUVECs [3] = assay: HUVEC viability in 3D PEG hydrogel array spots; conditions: 10 μM SU5416, 48 hours
Description: During hydrogel array fabrication, hydrogel spots contained HUVECs at a density of 2×10^7 cells/mL. The concentration of CRGDS adhesion peptide (SEQ ID NO:2) was adjusted to 0, 0.25, 0.5, 1.0 and 2.0 mM through the addition of PEGNB-CRGDS (SEQ ID NO:2), with the total pendant peptide concentration in all hydrogel spots maintained at 2 mM by adding PEGNB-CRDGS (SEQ ID NO:2). Total polymer percent weight was varied between 4.2, 5 and 7% w/v in the hydrogel spots and 4, 6 and 8% w/v in the backgrounds, with low percent weight hydrogel spots corresponding to low weight percent backgrounds and high percent weight hydrogel spots corresponding to high percent weight backgrounds. During viability experiments, arrays of encapsulated cells were cultured for 48 hours in growth medium alone or with 10 μM SU5416 (Sigma Aldrich), a known inhibitor of VEGFR2 signaling. Medium was replaced 24 hours after encapsulation. After 48 hours of culture, the arrays were washed with serum-free M199 and stained with 5 μM Cell Tracker Green (Invitrogen) for 45 minutes in M199. After 15 minutes of staining, the staining solution was supplemented with Hoechst nuclear stain (Invitrogen) to achieve a final concentration of 10 μg/mL. After staining, the arrays were washed with serum free M199 and incubated for 30 minutes in growth medium containing 2 μM ethidium homodimer (Invitrogen). The arrays were then washed with 1×PBS and fixed for 30 minutes in 10% buffered formalin (Fisher). The arrays were soaked in 1×PBS overnight and photographed using a Nikon TE300 fluorescence microscope within 48 hours of fixation. Viability was quantified by dividing the number of live cell nuclei by total nuclei in the post.

HUVECs [4] = assay: HUVEC proliferation in 3D PEG hydrogel array spots (Click-iT EdU); conditions: 10 μM SU5416, 24 hours
Description: (§1) During proliferation and tubulogenesis experiments, the arrays of encapsulated cells were cultured in growth medium alone or with 10 μM SU5416 for 24 hours only. Afterward, the cells were incubated for 5 hours in growth medium with 20 μM 5-ethynyl-2′-deoxyuridine (EdU) (Invitrogen) as a proliferation marker and, if appropriate, 10 μM SU5416. Afterward, the arrays were stained with Cell Tracker Green in the same manner as the viability assay, but without Hoechst nuclear stain or ethidium homodimer. The arrays were washed with 1×PBS, fixed for 30 minutes in 10% buffered formalin and stained using the Click-iT EdU 594 proliferation kit (Invitrogen). The staining procedure was slightly modified from the manufacturer's instructions, as Alexa Fluor® 594 was diluted to half the recommended concentration. The arrays were soaked in 1×PBS overnight and photographed using a Nikon TE300 fluorescence microscope. Proliferation was quantified by counting the number of EdU-positive cells and dividing by the total number of nuclei in the post. Tubulogenesis was quantified by manually measuring total capillary-like structure (CLS) length in each post as labeled by Cell Tracker Green. To obtain confocal microscopy images, the hydrogel arrays were mounted in Prolong Gold antifade solution (Invitrogen) and photographed on a Nikon A1R-Si confocal microscope.

HUVECs [5] = assay: HUVEC tubulogenesis (total CLS length) in 3D PEG hydrogel array spots; conditions: 10 μM SU5416, 24 hours
Description: as §1
Hydrogel solutions were created by combining 36, 42 or 60 mg/mL 20 kDa 8-arm norbornene-functionalized PEG with 0 to 2 mM CRGDS (SEQ ID NO:2) adhesion peptide, additional CRDGS (SEQ ID NO:32) scrambled adhesion peptide to maintain a total adhesion peptide concentration of 2 mM, […] (SEQ ID NO:27) crosslinking peptide at a 2× molar excess concentration to PEG and 0.05% IRGACURE 2959 photoinitiator in phosphate buffered saline. The solutions were polymerized into hydrogels under UV light (90 mW/cm^2, 365 nm, 2 seconds). HUVECs were encapsulated at a density of 2.0×10^7 […] in hydrogels and incubated in M199 supplemented with EGM2 growth supplement. The cells were stained with Cell Tracker Green CMFDA, photographed 24 hours after seeding and scored for total tubule length in the spots. Results are shown FIGS. 18, 28 and 29.

Cc1cc(C)c(/C=C2\C(=O)Nc3ccccc32)[nH]1 [SU5416]
decrease in proliferation compared to the growth medium control (HUVECs [1]): 20% | decrease in total tubule length compared to growth medium only (HUVECs [2]): 50% | reduction of viability with VEGFR2 inhibition (HUVECs [3]; all modulus conditions, spots with 2 mM CRGDS): insignificant | effect of VEGFR2 inhibition on cell viability (HUVECs [3]; conditions without CRGDS): significantly reduced | effect of VEGFR2 inhibition on viability (HUVECs [3]; high modulus, CRGDS at or above 0.5 mM): not significant | effect of VEGFR2 inhibition on proliferation (HUVECs [4]; high modulus, 0 mM CRGDS): significant increase in proliferation | effect of VEGFR2 inhibition on proliferation (HUVECs [4]; high modulus, all CRGDS concentrations except 0 mM): significant decreases in proliferation | effect of VEGFR2 inhibition on proliferation (HUVECs [4]; low modulus, 0, 0.25 and 1 mM CRGDS): significant decrease | effect of VEGFR2 inhibition on proliferation (HUVECs [4]; low modulus, 2 mM CRGDS): increased significantly | effect of VEGFR2 inhibition on HUVEC proliferation (HUVECs [4]; majority of hydrogel conditions): decreased | effect of VEGFR2 inhibition on proliferation (HUVECs [4]; medium modulus, 0.5 and 2 mM CRGDS): significant proliferation decreases | effect of VEGFR2 inhibition on CLS length (HUVECs [5]; high modulus, 1 mM CRGDS spots): decreased CLS length | effect of VEGFR2 inhibition on CLS length (HUVECs [5]; low modulus, 2 mM CRGDS spots): increased CLS length | effect of VEGFR2 inhibition on CLS length (HUVECs [5]; medium modulus, 0 mM CRGDS spots): decreased CLS length | effect of VEGFR2 inhibition on CLS length compared to growth medium controls (HUVECs [5]; most hydrogel conditions): did not cause significant changes
